This is an account of results in US20240238423A9, “TETRAHYDROISOQUINOLINE HETEROBIFUNCTIONAL BCL-XL DEGRADERS” (Treeline Biosciences, Inc., priority 2022, published 2024).

This test has as its target T1, Human BCL-XL protein (N-terminal HiBiT tagged BCL-XL in HT1080 cells) (Homo sapiens, UniProt Q07817).
T1 construct: expressed in transfected cells; host or cells: HT-1080 (ATCC CCL-121), stably transduced with lentivirus pLV-UBC-N-HiBiT-BCL-XL-PGK-puro and selected with puromycin
Description: HiBiT based degradation assay. As to conditions: HT1080 cells expressing HiBiT-BCL-XL; for Ymin (6 h) / Ymin (24 h): BCL-XL degradation normalized with DMSO control; for DC50: BCL-XL degradation. It is filed as cell-based. In short, it runs like this: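 HT1080 cells stably transduced by lentivirus with N-terminally HiBiT-tagged human BCL-XL and kept under 1 μg/mL puromycin selection were seeded at three thousand cells per well in 40 μL RPMI 1640 into 384-well plates pre-spotted with compounds across a concentration range. Luminescence was read on a PHERAstar FSX, normalized to DMSO, and fitted with a four-parameter logistic model.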
(In general: The HiBiT peptide binds its large partner to form an active luciferase.)

Structures are written as SMILES. Read-outs that look alike come from different tables or passages of the source. Some results are limits rather than exact numbers.

T1 sequence (Q07817 whole entry): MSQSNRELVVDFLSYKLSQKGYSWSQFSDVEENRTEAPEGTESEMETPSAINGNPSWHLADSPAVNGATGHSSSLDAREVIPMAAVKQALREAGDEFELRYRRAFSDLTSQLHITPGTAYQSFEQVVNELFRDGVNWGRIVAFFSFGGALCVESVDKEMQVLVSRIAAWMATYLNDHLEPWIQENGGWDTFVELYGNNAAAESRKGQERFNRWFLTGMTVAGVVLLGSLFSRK

In the case of `Cc1c(Oc2ccc(CCCN3CCN(c4ccc5c(C6CCC(=O)NC6=O)nn(C)c5c4)CC3)cc2)cccc1-c1ccc(N2CCc3cccc(C(=O)Nc4nc5ccccc5s4)c3C2)nc1C(=O)O` (centres unmarked) [Compound 149, 6-(8-(benzo[d]thiazol-2-ylcarbamoyl)-3,4-dihydroisoquinolin-2(1H)-yl)-3-(3-(4-(3-(4-(3-(2,6-dioxopiperidin-3-yl)-1-methyl-1H-indazol-6-yl)piperazin-1-yl)propyl)phenoxy)-2-methylphenyl)picolinic acid], under “6 h”, the “Ymin (6 h)” value was “B (50% ≤ Ymin < 70%)”. Besides, the “Ymin (24 h)” value (24 h) was “A (Ymin < 50%)”. For the same compound, the DC50 by setting is: (6 h, read-out: EC50 (6 h)) under 100 nM; (24 h, read-out: EC50 (24 h)) under 100 nM.
As to `Cc1c(Oc2ccc(CCCN3CCN(c4cccc5c(C6CCC(=O)NC6=O)nn(C)c45)CC3)cc2)cccc1-c1ccc(N2CCc3cccc(C(=O)Nc4nc5ccccc5s4)c3C2)nc1C(=O)O` (centres unmarked) [Compound 150, 6-[8-(1,3-benzothiazol-2-ylcarbamoyl)-3,4-dihydro-1H-isoquinolin-2-yl]-3-[3-[4-[3-[4-[3-(2,6-dioxo-3-piperidyl)-1-methyl-indazol-7-yl]piperazin-1-yl]propyl]phenoxy]-2-methyl-phenyl]pyridine-2-carboxylic acid], for the setting “6 h”, the “Ymin (6 h)” value is listed as “B (50% ≤ Ymin < 70%)”. Also, where the note is “24 h”, the “Ymin (24 h)” value is “B (50% ≤ Ymin < 70%)”. The DC50 is, setting by setting: (6 h, read-out: EC50 (6 h)) 100 to 1000 nM; (24 h, read-out: EC50 (24 h)) under 100 nM.
With `Cc1c(OCCCN2CCN(CC(=O)N3CCN(c4cccc5c(C6CCC(=O)NC6=O)nn(C)c45)CC3)CC2)cccc1-c1ccc(N2CCc3cccc(C(=O)Nc4nc5ccccc5s4)c3C2)nc1C(=O)O` (centres unmarked) [Compound 151, 6-(8-(Benzo[d]thiazol-2-ylcarbamoyl)-3,4-dihydroisoquinolin-2(1H)-yl)-3-(3-(3-(4-(2-(4-(3-(2,6-dioxopiperidin-3-yl)-1-methyl-1H-indazol-7-yl)piperazin-1-yl)-2-oxoethyl)piperazin-1-yl)propoxy)-2-methylphenyl)picolinic acid], the “Ymin (6 h)” value (6 h) is “B (50% ≤ Ymin < 70%)”. Moreover, under “24 h”, the “Ymin (24 h)” value is “A (Ymin < 50%)”. Besides, the DC50 by setting is: (6 h, read-out: EC50 (6 h)) 100 to 1000 nM; (24 h, read-out: EC50 (24 h)) under 100 nM.
For `Cc1cc(OCCCN2CCN(CC(=O)N3CCN(c4cccc5c(C6CCC(=O)NC6=O)nn(C)c45)CC3)CC2)ccc1-c1ccc(N2CCc3cccc(C(=O)Nc4nc5ccccc5s4)c3C2)nc1C(=O)O` (centres unmarked) [Compound 152, 6-(8-(Benzo[d]thiazol-2-ylcarbamoyl)-3,4-dihydroisoquinolin-2(1H)-yl)-3-(4-(3-(4-(2-(4-(3-(2,6-dioxopiperidin-3-yl)-1-methyl-1H-indazol-7-yl)piperazin-1-yl)-2-oxoethyl)piperazin-1-yl)propoxy)-2-methylphenyl)picolinic acid], in that order: “B (50% ≤ Ymin < 70%)”, “A (Ymin < 50%)”, under 100 nM and under 100 nM.
For `Cc1cc(OCCCN2CCN(CC(=O)N3CCN(c4ccc5c(C6CCC(=O)NC6=O)nn(C)c5c4)CC3)CC2)ccc1-c1ccc(N2CCc3cccc(C(=O)Nc4nc5ccccc5s4)c3C2)nc1C(=O)O` (centres unmarked) [Compound 153, 6-(8-(Benzo[d]thiazol-2-ylcarbamoyl)-3,4-dihydroisoquinolin-2(1H)-yl)-3-(4-(3-(4-(2-(4-(3-(2,6-dioxopiperidin-3-yl)-1-methyl-1H-indazol-6-yl)piperazin-1-yl)-2-oxoethyl)piperazin-1-yl)propoxy)-2-methylphenyl)picolinic acid], in that order: “A (Ymin < 50%)”, “A (Ymin < 50%)”, under 100 nM and under 100 nM.
`Cc1cc(OCCCN2C[C@@H](C)N(CC(=O)N3CCN(c4ccc5c(C6CCC(=O)NC6=O)nn(C)c5c4)CC3)[C@@H](C)C2)ccc1-c1ccc(N2CCc3cccc(C(=O)Nc4nc5ccccc5s4)c3C2)nc1C(=O)O` (stereo partly drawn) [Compound 154a, 6-(8-(Benzo[d]thiazol-2-ylcarbamoyl)-3,4-dihydroisoquinolin-2(1H)-yl)-3-(4-(3-((3R,5S)-4-(2-(4-(3-(2,6-dioxopiperidin-3-yl)-1-methyl-1H-indazol-6-yl)piperazin-1-yl)-2-oxoethyl)-3,5-dimethylpiperazin-1-yl)propoxy)-2-methylphenyl)picolinic acid]: the “Ymin (6 h)” value (6 h) is recorded as “A (Ymin < 50%)”. Moreover, the “Ymin (24 h)” value (24 h) was “A (Ymin < 50%)”. Further, the DC50 is under 100 nM (6 h, read-out: EC50 (6 h)) and under 100 nM (24 h, read-out: EC50 (24 h)).
`Cc1c(OCCCCCCCCCN2CCN(c3ccc4c(C5CCC(=O)NC5=O)nn(C)c4c3)CC2)cccc1-c1ccc(N2CCc3cccc(C(=O)Nc4nc5ccccc5s4)c3C2)nc1C(=O)O` (centres unmarked) [Compound 155, 6-[8-(1,3-benzothiazol-2-ylcarbamoyl)-3,4-dihydro-1H-isoquinolin-2-yl]-3-[3-[9-[4-[3-(2,6-dioxo-3-piperidyl)-1-methyl-indazol-6-yl]piperazin-1-yl]nonoxy]-2-methyl-phenyl]pyridine-2-carboxylic acid]: the “Ymin (6 h)” value (6 h) is given as “B (50% ≤ Ymin < 70%)”. Also, the “Ymin (24 h)” value (24 h) was “A (Ymin < 50%)”. In addition, the DC50 by setting is: (6 h, read-out: EC50 (6 h)) under 100 nM; (24 h, read-out: EC50 (24 h)) under 100 nM.
Turning to `Cc1c(OCC2CC3(CCN(CC(=O)Nc4ccc5c(C6CCC(=O)NC6=O)nn(C)c5c4)CC3)C2)cccc1-c1ccc(N2CCc3cccc(C(=O)Nc4nc5ccccc5s4)c3C2)nc1C(=O)O` (centres unmarked) [Compound 156, 6-(8-(benzo[d]thiazol-2-ylcarbamoyl)-3,4-dihydroisoquinolin-2(1H)-yl)-3-(3-((7-(2-((3-(2,6-dioxopiperidin-3-yl)-1-methyl-1H-indazol-6-yl)amino)-2-oxoethyl)-7-azaspiro[3.5]nonan-2-yl)methoxy)-2-methylphenyl)picolinic acid], the “Ymin (6 h)” value (6 h) is recorded as “A (Ymin < 50%)”. In addition, for the setting “24 h”, the “Ymin (24 h)” value was “A (Ymin < 50%)”. The DC50 was under 100 nM (6 h, read-out: EC50 (6 h)) and under 100 nM (24 h, read-out: EC50 (24 h)).
`Cc1c(-c2ccc(N3CCc4cccc(C(=O)Nc5nc6ccccc6s5)c4C3)nc2C(=O)NCCCCCCCC(=O)Nc2ccc3c(C4CCC(=O)NC4=O)nn(C)c3c2)cnn1CC12CC3CC(CC(C3)C1)C2` (centres unmarked) [Compound 157, 2-(5-(1-(((3r,5r,7r)-adamantan-1-yl)methyl)-5-methyl-1H-pyrazol-4-yl)-6-((8-((3-(2,6-dioxopiperidin-3-yl)-1-methyl-1H-indazol-6-yl)amino)-8-oxooctyl)carbamoyl)pyridin-2-yl)-N-(benzo[d]thiazol-2-yl)-1,2,3,4-tetrahydroisoquinoline-8-carboxamide]: the “Ymin (6 h)” value (6 h) was “B (50% ≤ Ymin < 70%)”. For the same compound, the DC50 (6 h, read-out: EC50 (6 h)) was under 100 nM.
As to `Cc1c(OCCCC2CCN(CC(=O)Nc3cccc4c(C5CCC(=O)NC5=O)nn(C)c34)CC2)cccc1-c1ccc(N2CCc3cccc(C(=O)Nc4nc5ccccc5s4)c3C2)nc1C(=O)O` (centres unmarked) [Compound 158, 6-(8-(benzo[d]thiazol-2-ylcarbamoyl)-3,4-dihydroisoquinolin-2(1H)-yl)-3-(3-(3-(1-(2-((3-(2,6-dioxopiperidin-3-yl)-1-methyl-1H-indazol-7-yl)amino)-2-oxoethyl)piperidin-4-yl)propoxy)-2-methylphenyl)picolinic acid], the “Ymin (6 h)” value (6 h) is on record as “C (Ymin ≥ 70%)”. The “Ymin (24 h)” value (24 h) is reported as “B (50% ≤ Ymin < 70%)”. For the same compound, the DC50 is under 100 nM (6 h, read-out: EC50 (6 h)) and 100 to 1000 nM (24 h, read-out: EC50 (24 h)).
